Data as given in PMC11009625, “Antibiotic class with potent in vivo activity targeting lipopolysaccharide synthesis in Gram-negative bacteria” (Proceedings of the National Academy of Sciences of the …, 2024).
≈ marks a conversion by molar mass, not a printed value. Where two headings read alike, the source gives them in different places.

Key:
[1] = tested on: A. baumanii BM4454 and efflux-defective BM4652; experiment: MIC, A. baumannii laboratory strains; type: cell-based; settings: Acinetobacter baumannii
Description: (§1) Minimum inhibitory concentration (MIC) values were determined according to the Clinical Laboratory Standards Institute guidelines. Frequency of resistance was determined by plating ~5 × 10^8 bacterial cells on agar-solidified media plates containing test compound at concentrations corresponding to four times the measured solid-media MIC of the strains. Colonies were counted after 24 h, restreaked onto media containing the same concentration of compound, and the MIC remeasured against the assayed compound. Genomic DNA from isolated clones was sequenced by paired-end sequencing on an Illumina MiSeq device. Complete experimental details available in SI Appendix. […]
Minimum inhibitory concentration (MIC) determination. Broth microdilution and agar dilution
MIC assays were conducted according to CLSI guidelines (M07-2012). Appropriate inoculation
suspension density was assessed using a Sensititre Nephelometer with a Sensititre 0.5
McFarland Standard. Serum MICs were conducted in 50% heat-inactivated pooled human

[2] = tested on: P. mirabilis ATCC 7002 and tolC::Tn5-kan2 EN1490; experiment: MIC, P. mirabilis laboratory strains; type: cell-based; settings: Proteus mirabilis
Description: as §1
(§2) Minimum inhibitory concentration (MIC) determination. Broth microdilution and agar dilution MIC assays were conducted according to CLSI guidelines (M07-2012). Appropriate inoculation suspension density was assessed using a Sensititre Nephelometer with a Sensititre 0.5 […]
(§3) McFarland Standard. […]
Strain construction. The efflux-defective P. mirabilis strain EN1490 was constructed using EZ-Tn5 <KAN-2> Transposome mutagenesis with TypeOne Restriction Inhibitor. Approximately 3000 independent clones were screened for increased susceptibility to chloramphenicol (8 mg/L), yielding 2 independent clones with insertions in the gene tolC. […]

[3] = tested on: clinical K. pneumoniae isolates (n=104); experiment: MIC distribution and MIC90, clinical K. pneumoniae isolates; type: cell-based; settings: Klebsiella pneumoniae; n=104, isolates from Spain, Poland, Denmark and Wales
Description: as §1, §2, §3
To determine the […]
genotype of MDR strains from the ENABLE strain collection, de novo assembled contigs were analyzed using ResFinder (12–14) […]
MIC distribution versus E. coli (n=111)
Clinical Isolates from Spain, Poland, Denmark and Wales
Figure S4. MIC distribution and MIC90 versus clinical E. coli isolates
MIC distribution versus K. pneumoniae (n=104)
Figure S5. MIC distribution and MIC90 versus clinical K. pneumoniae isolates […]

in vivo = experiment: in vivo; design: species or system NMRI mice; settings: female, NMRI, mouse, sc
Description: PK and safety studies were done the Latvian Institute for Organic Synthesis (Riga, Latvia) and in vivo efficacy studies were done at Statens Serum Institut (Copenhagen, Denmark). Assays were done in accordance with the relevant permits at the respective sites (SI Appendix). For PK studies, plasma samples were taken from mice dosed subcutaneously and the samples were analyzed by UPLC/MS/MS. For in vivo efficacy studies, neutropenic mice were infected intraperitoneally with 10^6 bacteria and treated with subcutaneously with test compounds 1 h after infection. The mice were euthanized 4 h after treatment and serially diluted samples of blood and peritoneal fluid were plated onto blood agar plates. Complete experimental details available in SI Appendix. […]
In vivo pharmacokinetic studies
Animals. NMRI female mice (10–12 weeks old, 27–33 g, n = 60) were obtained from ENVIGO (The Netherlands) and housed prior to treatment under standard conditions (21–23 °C, 12-h light/dark cycle, relative humidity 45%–65%) with unlimited access to food (R70 diet from […]
Lantmännen) and water. The experimental procedures were performed in accordance with the guidelines of the European Community and local laws and policies (Directive 2010/63/EU), and all of the procedures were approved by Food and Veterinary Service, Riga, Latvia. […]
PK assay in mice. For PK studies mice were dosed subcutaneously (SC) via a single bolus injection (injection volume 10 mL/kg). Blood samples were collected in tubes containing heparin. Blood was sampled from tail vein 15, 30, 60, 120, and 240min after the SC administration of the compounds. Tubes were centrifuged at +4 °C 10,000× g for 3 min. Plasma samples were collected and stored at −20 °C until analysis.
Plasma sample analysis by UPLC/MS/MS. Concentrations of EBL-3599 and EBL-3647 in mouse blood plasma were measured by liquid chromatography tandem mass spectrometry (LC/MS/MS) in positive electrospray ionization (ESI+) in multi reaction monitoring (MRM) mode.
Analyses were performed on a Waters Acquity UPLC system coupled to Waters XEVO TQ-Smicro tandem mass spectrometer. Chromatographical separation was carried out on Waters Acquity BEH C18 column (2.1×50mm, 1.7µm). The column temperature was 30°C, flow rate was 0.4mL/min. Linear gradient elution was applied, solvent A was 0.1% formic acid in water and solvent B was acetonitrile. The gradient program was: 0min – 5% B; 2.5min – 98% B; 4.5min – 98% B; 4.7min – 5% B; 5min – 5% B. Injection volume was 1µL.
Mass spectrometry parameters were obtained experimentally by direct infusion of EBL-3599 and […]
energy was 30 for all transitions. MS/MS transitions for EBL-3647 were 667.80 > 225.90 and 667.80 > 309.96. Cone voltage was 15V and collision energy was 35 and 25, respectively.
Calibration standards and quality control samples were prepared by spiking a blank mouse plasma with a stock solution of analyte to achieve a nominal concentration from 0.08 μg/mL to 80 μg/mL for both analyte.
A sample volume of 20 μL was transferred into a plastic tube and mixed with 300μL acetonitrile/methanol mixture (3:1, v/v) to precipitate proteins. The tubes was vortexed to mix and centrifuged at 10000 rpm for 10 min. 200 μL of supernatant was diluted with 600 μL of 0.1% formic acid and subjected to LC/MS/MS analysis. Samples above the upper limit of calibration should be diluted 10 times with blank plasma extract and reanalyzed. Bioanalysis of samples from each mouse were measured in duplicate and the results averaged.
Bacterial strains and inoculum. E. coli EC 106-09 (EN122) and K. pneumoniae SSI #3010 (EN124) are clinical isolates from Denmark. Bacterial suspensions for inoculation of mice were prepared

[4] = read-out: MIC A. baumanii BM4454
[5] = read-out: MIC A. baumanii BM4652
[6] = ATCC7002, read-out: MIC P. mirabilis ATCC 7002
[7] = ATCC7002, read-out: MIC P. mirabilis EN1490

Row | SMILES | MIC [1, 4] [µg/mL] | MIC [1, 5] [µg/mL] | MIC [2, 6] [µg/mL] | MIC [2, 7] [µg/mL] | MIC90 [3] [µg/mL] | AUC (in vivo; 10 mg/kg) [ng·h/mL] | Cmax (in vivo; 10 mg/kg) [ng/mL] | AUC (in vivo; 25 mg/kg) [ng·h/mL] | Cmax (in vivo; 25 mg/kg) [ng/mL] | AUC (in vivo; 50 mg/kg) [ng·h/mL] | Cmax (in vivo; 50 mg/kg) [ng/mL] | AUC (in vivo; 100 mg/kg) [ng·h/mL] | Cmax (in vivo; 100 mg/kg) [ng/mL]
1 | Cc1cc(C#N)nc(N2CCN(S(=O)(=O)c3ccc(NC(=O)c4cc(CNCCCN)ccc4N(C)S(C)(=O)=O)cc3)CC2)n1.Cl.Cl [EBL-3599] | > 64 | 32 | > 64 | 4 | 8 | 22900 | 13000 | 58000 | 27000 | 136000 | 65000 | 349000 | 142000
2 | Cc1cc(C#N)nc(N2CCN(S(=O)(=O)c3ccc(NC(=O)c4cc(CN5CC(CN)C5)ccc4N(C)S(C)(=O)=O)cc3)CC2)n1 [EBL-3647] | > 64 | 64 (≈ 95.8 µM) | > 64 | 16 (≈ 24 µM) | 8 (≈ 12 µM) | 20200 | 12000 | 55300 | 30000 | 140000 | 72000 | 222000 | 130000
